Series [1] can be described thus: Metabolic stability in human liver microsomes. It is filed as in vitro ADME. To be noted: human liver microsomes 0.5 mg/mL, NADPH, 37° C.; for CLint scaled at 1 µM: pH 7.4, read-out: HLM_CLint. As to the method:
(§1) Determinations of the metabolic stability of the compound from the above embodiments, the detailed operation steps are as followed:
(§2) 1. Preparation of buffer C:
(§3) Buffer A: 1.0 L of 0.1 M potassium dihydrogen phosphate buffer (containing 1.0 mM EDTA);
(§4) Buffer B: 1.0 L of 0.1 M dipotassium hydrogen phosphate buffer (containing 1.0 mM EDTA);
(§5) Buffer C: 500 mL Buffer B was titrated with Buffer A to pH 7.4.
(§6) 2. 10 mM stock solution preparation:
(§7) 10 mM test compound: A certain amount of the test compound was weighed and dissolved in DMSO.
(§8) 10 mM control: 5.455 mg of ketanserin dissolved in 1 mL DMSO.
(§9) 3. Preparation of the drug solution:
(§10) 500 μM solution: 5 μL of 10 mM stock solution (see step 2) was added into 95 μL ACN;
(§11) 1.5 μM dosing solution (dissolved in liver microsome solution):
(§12) 18.75 μL of 20 mg/mL liver microsomes was added into 479.75 μL of Buffer C, then 1.5 μL of 500 μM solution was added and mixed gently by shaking.
(§13) 4. Preparation of 6 mM NADPH solution:
(§14) 15 mg NADPH was weighted, then added into 3 mL of buffer C to prepare a 6 mM NADPH solution.
(§15) 5. 30 µL of 1.5 μM dosing solution (see step 3) was added into the wells of the 96-well plate set at different time points (0 minutes, 5 minutes, 15 minutes, 30 minutes, 45 minutes), number of dulplicate sample is 2.
(§16) 6. Preparation of a 0 minutes sample: 135 μL ACN (with internal standard) was added to the 0 minutes well, followed by 15 µL of 6 mM NADPH solution.
(§17) 7. The 96-well plate containing 1.5 μM dosing solution and NADPH solution were preheated in a 37° C. water bath for 5 minutes.
(§18) 8. The 15 µL of 6 mM NADPH solution preheated was added into the wells set to 5 minutes, 15 minutes, 30 minutes, 45 minutes, then the reaction was initiated and started counting the time.
(§19) 10. The sample was vortexed for 10 min, and then centrifuged for 15 minutes on a centrifuge (Thermo Multifuge×3R) using 5594×g.
(§20) 11. 50 μL of the supernatant was taken from the centrifuged sample, transferred to a 96-well sample plate to which 100 μL of ultrapure water had already been added, mixed, and finally sent to LC-MS/MS for analysis.
(§21) Half time (T1/2)=0.693/K (K is the rate constant obtained by linear regression of the logarithm of the concentration as vertical coordinates and the culturing time as the abscissa)
(§22) 2. According to the equation formula bellow, Excel was used to plot the compound content versus reaction time, as well as half life calculation (min)
(§23) Y=(Y0−Plateau)×e^(−K*X)+Plateau
(§24) Y0 represents the compound content at 0 minutes; Y represents the compound content; X represents the time point; K represents degration rate constant of the compound; Plateau represents the lowest possible content of the compound (defined herein as 0).
On the technique in general: Liver microsomes are a subcellular fraction often used to study metabolism.

The target in a further series is T1, BRD4 (BD1) (Homo sapiens, UniProt O60885).
T1 construct: Each member comprises two tandem bromodomains (BD1 and BD2) for recognizing the acetylated lysine residues
Put plainly: BRD4 (BD1) bromodomain binding, HTRF. To be noted: 2 h incubation at r.t. For orientation: TR-FRET usually uses a lanthanide donor and a delayed reading to cut background.

Series [2] in a line: Metabolic stability in mouse liver microsomes. Type of series: in vitro ADME. To be noted: mouse liver microsomes 0.5 mg/mL, NADPH, 37° C.; for CLint scaled at 1 µM: pH 7.4, read-out: MLM_CLint. As to the method: as §1, §2, §3, §4, §5, §6, §7, §8, §9, §10, §11, §12, §13, §14, §15, §16, §17, §18, §19, §20, §21, §22, §23, §24
The target of the next series is T2, BRD4 (BD2) (Homo sapiens, UniProt O60885).
T2 construct: Each member comprises two tandem bromodomains (BD1 and BD2) for recognizing the acetylated lysine residues
Put plainly: BRD4 (BD2) bromodomain binding, HTRF. To be noted: 2 h incubation at r.t.

The test system of another series is MV-4-11 cells. The series can be described thus: Inhibitory effect on MV-4-11 cells (CellTiter-Glo). It is filed as cell-based. To be noted: Homo sapiens, read-out: MV-4-11. (ATP-based viability assays read luminescence as a measure of living cells.)
Where [3] appears, read: MV4-11, 72 hours, CellTiter-Glo.

Read-outs that look alike come from different tables or passages of the source.

As for `CCNC(=O)C[C@@H]1N=C(c2ccc(F)cc2)c2cc(OC)ccc2-c2cn(C)c(=O)cc21` [Compound 4023, (S)—N-ethyl-2-(7-(4-fluorophenyl)-9-methoxy-2-methyl-3-oxo-3,5-dihydro-2H-benzo[c]pyrido[3,4-e]azepin-5-yl)acetamide], the HLM_T1/2 in series [1] is given as 121.24 min. Also, the CLint scaled at 1 µM in series [1] was 14.3 mL/min/kg; in series [2] it was 72.7 mL/min/kg. In addition, the IC50 on BRD4 (BD1) was 3 nM; on BRD4 (BD2), 1 nM; in the series on MV-4-11 cells (setting [3]), 9 nM. Also, the MLM_T1/2 in series [2] was found to be 75.05 min.

Take `CC[C@@H]1N=C(c2ccc(F)cc2)c2ccc(CS(=O)(=O)CC)cc2-c2cn(C)c(=O)cc21` [Compound 4038, (S)-5-ethyl-10-((ethylsulfonyl)methyl)-7-(4-flurophenyl)-2-methyl-2,5-dihydro-3H-benzo[c]pyrido[3,4-e]azepin-3-ketone]: in series [1], the HLM_T1/2 result is “∞”. In addition, the IC50 on BRD4 (BD1) worked out at 2 nM; at BRD4 (BD2) it was 1 nM; with MV-4-11 cells (setting [3]) it was 4 nM. For the same molecule, the MLM_T1/2 entry in series [2] is “∞”.

Take `CCS(=O)(=O)Cc1ccc2c(c1)-c1cn(C)c(=O)cc1N(C)N=C2c1ccc(F)cc1` [Compound 4078, 10-((ethylsulfonyl)methyl)-7-(4-flurophenyl)-2,5-dimethyl-2,5-dihydro-3H-benzo[e]pyrido[4,3-c][1,2]diazepin-3-ketone]: the HLM_T1/2 in series [1] came out at 727.04 min. The figures for the CLint scaled at 1 µM in series [1] and in series [2] were 2.39 mL/min/kg and 27.9 mL/min/kg, respectively. Further, the IC50 on BRD4 (BD1) was determined as 5 nM; on BRD4 (BD2), 2 nM; with MV-4-11 cells (setting [3]), 14 nM. The molecule also returned an MLM_T1/2 in series [2] of 195.55 min.

Turning to `C[C@@H]1N=C(c2ccc(F)cc2)c2cc(F)c(N)cc2-c2cn(C)c(=O)cc21` [Compound 4070, (S)-10-amino-9-fluoro-7-(4-flurophenyl)-2,5-dimethyl-2,5-dihydro-3H-benzo[c]pyrido[3,4-e]azepin-3-ketone], the IC50 on BRD4 (BD1) was 3 nM; at BRD4 (BD2) it was 2 nM; in the series with MV-4-11 cells (MV4-11, 72 h), 16 nM.

For the molecule `CCS(=O)(=O)Cc1cc2c(cc1O)C(c1ccc(F)cc1)=N[C@@H](C)c1cc(=O)n(C)cc1-2` [Compound 4063, (S)-10-((ethylsulfonyl)methyl)-7-(4-flurophenyl)-9-hydroxyl-2,5-dimethyl-2,5-dihydro-3H-benzo[c]pyrido[3,4-e]azepin-3-ketone], the IC50 came to 1 nM on BRD4 (BD1), 1 nM on BRD4 (BD2) and 3 nM in the series with MV-4-11 cells (setting [3]).

In the case of `C[C@@H]1N=C(c2ccc(Cl)cc2)c2ccccc2-c2cn(C)c(=O)cc21` [Compound 4025, (S)-7-(4-chlorophenyl)-2,5-dimethyl-2,5-dihydro-3H-benzo[c]pyrido[3,4-e]azepin-3-ketone], the IC50 was 7 nM at BRD4 (BD1), 3 nM at BRD4 (BD2) and 54 nM with MV-4-11 cells (setting [3]).

`CCNC(=O)C[C@@H]1N=C(c2ccc(F)cc2)c2ccc(CS(C)(=O)=O)cc2-c2cn(C)c(=O)cc21` [Compound 4015, (S)—N-ethyl-2-(7-(4-fluorophenyl)-2-methyl-10-(methylsulfonemethyl)-3-oxo-3,5-dihydro-2H-benzo[c]pyrido[3,4-e]azepin-5-yl)acetamide]: the IC50 on BRD4 (BD1) came to 2 nM; at BRD4 (BD2), 1 nM; in the series with MV-4-11 cells (setting [3]) it was 69 nM.

With `CCS(=O)(=O)Nc1ccc2c(c1)-c1cn(C)c(=O)cc1[C@H](C)N=C2c1ccc(F)cc1` [Compound 4049, (S)—N-(7-(4-flurophenyl)-2,5-dimethyl-3-oxo-3,5-dihydro-2H-benzo[c]pyrido[3,4-e]azepin-10-yl)ethylsulfonamide], the IC50 at BRD4 (BD1) is 2 nM; at BRD4 (BD2), 1 nM; in the series with MV-4-11 cells (setting [3]), 1 nM.

With `CCS(=O)(=O)Cc1ccc2c(c1)-c1cn(C)c(=O)cc1[C@H](CC(N)=O)N=C2c1ccc(F)cc1` [Compound 4076, (S)-2-(10-((ethylsulfonyl)methyl)-7-(4-flurophenyl)-2-methyl-3-oxo-3,5-dihydro-2H-benzo[c]pyrido[3,4-e]azepin-5-yl)acetamide], the results for the IC50 at BRD4 (BD1), at BRD4 (BD2) and in the series on MV-4-11 cells (setting [3]) were 2 nM, 1 nM and 114 nM, respectively.

`CCNC(=O)Nc1ccc2c(c1)-c1cn(C)c(=O)cc1[C@H](C)N=C2c1ccc(F)cc1` [Compound 4051, (S)-1-ethyl-3-(7-(4-flurophenyl)-2,5-dimethyl-3-oxo-3,5-dihydro-2H-benzo[c]pyrido[3,4-e]azepin-10-yl)urea]: the IC50 on BRD4 (BD1) turned out to be 5 nM; at BRD4 (BD2) it was 3 nM; in the series with MV-4-11 cells (setting [3]), 42 nM.

On to `CCS(=O)(=O)Cc1ccc2c(c1)-c1cn(C)c(=O)cc1[C@H](C)N=C2c1ccc(OC)cc1` [Compound 4053, (S)-10-((ethylsulfonyl)methyl)-7-(4-methoxylphenyl)-2,5-dimethyl-2,5-dihydro-3H-benzo[c]pyrido[3,4-e]azepin-3-ketone], for which the figures for the IC50 on BRD4 (BD1), on BRD4 (BD2) and in the series with MV-4-11 cells (setting [3]) were 2 nM, 1 nM and 7 nM, respectively.

For `CCS(=O)(=O)Cc1ccc2c(c1)-c1cn(C)c(=O)cc1[C@H](C)N=C2c1ccc(F)cc1OC` [Compound 4087, (S)-10-((ethylsulfonyl)methyl)-7-(4-fluoro-2-methoxylphenyl)-2,5-dimethyl-2,5-dihydro-3H-benzo[c]pyrido[3,4-e]azepin-3-ketone], the results for the IC50 at BRD4 (BD1), on BRD4 (BD2) and with MV-4-11 cells (setting [3]) were 4 nM, 1 nM and 26 nM, respectively.

Turning to `CNS(=O)(=O)C(C)(C)c1ccc2c(c1)-c1cn(C)c(=O)cc1[C@H](C)N=C2c1ccc(F)cc1` [Compound 4090, (S)-2-(7-(4-flurophenyl)-2,5-dimethyl-3-oxo-3,5-dihydro-2H-benzo[c]pyrido[3,4-e]azepin-10-yl)-N-methylpropane-2-sulfamide], the IC50 on BRD4 (BD1) turned out to be 1 nM; on BRD4 (BD2), 1 nM; with MV-4-11 cells (setting [3]) it was 3 nM.

In the case of `CCS(=O)(=O)Nc1cc2c(cc1F)C(c1ccc(Cl)cc1)=N[C@@H](C)c1cc(=O)n(C)cc1-2` [Compound 4062, (S)—N-(7-(4-chlorophenyl)-9-fluoro-2,5-dimethyl-3-oxo-3,5-dihydro-2H-benzo[c]pyrido[3,4-e]azepin-10-yl)ethylsulfonamide], the IC50 at BRD4 (BD1), on BRD4 (BD2) and in the series with MV-4-11 cells (setting [3]) was 1 nM throughout.

With `Cn1cc2c(cc1=O)CN=C(c1ccc(Cl)cc1)c1ccccc1-2` [Compound 4010, 7-(4-chlorophenyl)-2-methyl-2H-benzo[c]pyrido[3,4-e]azepin-3(5H)-ketone], the figures for the IC50 on BRD4 (BD1), at BRD4 (BD2) and with MV-4-11 cells (setting [3]) were 30 nM, 43 nM and 637 nM, respectively.

Regarding `CCS(=O)(=O)Cc1ccc2c(c1)-c1cn(C)c(=O)cc1[C@@H](C)N=C2c1ccc(F)cc1` [Compound 4033, (R)-10-((ethylsulfone)methyl)-7-(4-fluorophenyl)-2,5-dimethyl-2,5-dihydro-3H-benzo[c]pyrido[3,4-e]azepin-3-ketone], the IC50 is 341 nM at BRD4 (BD1), 144 nM on BRD4 (BD2) and 985 nM with MV-4-11 cells (setting [3]).

As to `CC[C@@H]1N=C(c2ccc(F)cc2)c2cc(F)c(NS(=O)(=O)CC)cc2-c2cn(C)c(=O)cc21` [Compound 4066, (S)—N-(5-ethyl-9-fluoro-7-(4-flurophenyl)-2-methyl-3-oxo-3,5-dihydro-2H-benzo[c]pyrido[3,4-e]azepin-10-yl)ethylsulfonamide], the IC50 was found to be 1 nM at BRD4 (BD1), 1 nM on BRD4 (BD2) and 0.4 nM in the series on MV-4-11 cells (setting [3]).

Values taken from US20190284192A1, “NITROGENOUS MACROCYCLIC COMPOUND, PREPARATION METHOD THEREFOR, PHARMACEUTICAL COMPOSITION AND APPLICATION THEREOF” (LUOXIN PHARMACEUTICAL (SHANGHAI) CO., LTD., priority 2016, published 2019).
